Test results as given in PubChem BioAssay AID2060899 (Molecular Pharmacology Branch, DTP, NCI, 2025).
pIC50: −log10 of the molar value.

Tested on: 565726-208-R1-J5-PDC complex spheroids, growth inhibition
Assay: Anticancer human tumor 565726-208-R1-J5-PDC patient-derived pancreatic adenocarcinoma cell line growth inhibition [RAS]
Details: for pIC50: curve of first compound; for viability, T/C: stronger effect = lower value
In short: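 Multi-cell-type spheroids: tumor cells plus HUVEC endothelial cells and mesenchymal stem cells. RAS-pathway inhibitors were combined with targeted agents, each dosed in half-log steps down from clinical Cmax, or from 10 microM when Cmax was unknown.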
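Further: spheroids exposed to compounds for seven days before readout.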
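Wherever viability, T/C is given: 100% = DMSO vehicle control viability.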

**Q.** How did the pIC50 (second compound 0.000949 µM) turn out when `CC(C)n1nc(-c2ccc3oc(N)nc3c2)c2c(N)ncnc21` + CCn1c(-c2cc(N3CCN(C)CC3)cnc2C(C)OC)c2c3cc(ccc31)-c1csc(n1)CC(NC(=O)C1CC1C)C(=O)N1CCCC(N1)C(=O)OCC(C)(C)C2 was run?
**A.** 8.72

**Q.** And the pIC50 (second compound 0.003 µM)?
**A.** > 9.50

**Q.** And the pIC50 (second compound 0.00949 µM)?
**A.** > 9.50

**Q.** What about the pIC50 (second compound 0.03 µM) of the same molecule?
**A.** > 9.50

**Q.** And the pIC50 (second compound 0.0949 µM)?
**A.** > 9.50

**Q.** And the pIC50 (second compound 0.3 µM)?
**A.** > 9.50

**Q.** And the viability, T/C (second compound 0.000949 µM, first compound 0.000316 µM)?
**A.** 65.3%

**Q.** What about the viability, T/C (second compound 0.000949 µM, first compound 0.001 µM) of the same molecule?
**A.** 48.7%

**Q.** What about the viability, T/C (second compound 0.000949 µM, first compound 0.00316 µM) of the same molecule?
**A.** 51.4%

**Q.** What about the viability, T/C (second compound 0.000949 µM, first compound 0.01 µM) of the same molecule?
**A.** 36.5%

**Q.** And the viability, T/C (second compound 0.000949 µM, first compound 0.0316 µM)?
**A.** 23.8%

**Q.** And the viability, T/C (second compound 0.000949 µM, first compound 0.1 µM)?
**A.** 17.7%

**Q.** What about the viability, T/C (second compound 0.003 µM, first compound 0.000316 µM) of the same molecule?
**A.** 48.6%

**Q.** And the viability, T/C (second compound 0.003 µM, first compound 0.001 µM)?
**A.** 45.6%

**Q.** What about the viability, T/C (second compound 0.003 µM, first compound 0.00316 µM) of the same molecule?
**A.** 38.6%

**Q.** And the viability, T/C (second compound 0.003 µM, first compound 0.01 µM)?
**A.** 28.4%

**Q.** And the viability, T/C (second compound 0.003 µM, first compound 0.0316 µM)?
**A.** 20.7%

**Q.** What about the viability, T/C (second compound 0.003 µM, first compound 0.1 µM) of the same molecule?
**A.** 14.1%

**Q.** And the viability, T/C (second compound 0.00949 µM, first compound 0.000316 µM)?
**A.** 40.4%

**Q.** And the viability, T/C (second compound 0.00949 µM, first compound 0.001 µM)?
**A.** 35.5%

**Q.** And the viability, T/C (second compound 0.00949 µM, first compound 0.00316 µM)?
**A.** 30.6%

**Q.** And the viability, T/C (second compound 0.00949 µM, first compound 0.01 µM)?
**A.** 22.7%

**Q.** What about the viability, T/C (second compound 0.00949 µM, first compound 0.0316 µM) of the same molecule?
**A.** 15.7%

**Q.** And the viability, T/C (second compound 0.00949 µM, first compound 0.1 µM)?
**A.** 10.6%

**Q.** And the viability, T/C (second compound 0.03 µM, first compound 0.000316 µM)?
**A.** 30%

**Q.** And the viability, T/C (second compound 0.03 µM, first compound 0.001 µM)?
**A.** 31.1%

**Q.** And the viability, T/C (second compound 0.03 µM, first compound 0.00316 µM)?
**A.** 26%

**Q.** What about the viability, T/C (second compound 0.03 µM, first compound 0.01 µM) of the same molecule?
**A.** 17.5%

**Q.** And the viability, T/C (second compound 0.03 µM, first compound 0.0316 µM)?
**A.** 13.2%

**Q.** What about the viability, T/C (second compound 0.03 µM, first compound 0.1 µM) of the same molecule?
**A.** 8.25%

**Q.** What about the viability, T/C (second compound 0.0949 µM, first compound 0.000316 µM) of the same molecule?
**A.** 26.7%

**Q.** And the viability, T/C (second compound 0.0949 µM, first compound 0.001 µM)?
**A.** 25.9%

**Q.** And the viability, T/C (second compound 0.0949 µM, first compound 0.00316 µM)?
**A.** 20.3%

**Q.** What about the viability, T/C (second compound 0.0949 µM, first compound 0.01 µM) of the same molecule?
**A.** 14.6%

**Q.** What about the viability, T/C (second compound 0.0949 µM, first compound 0.0316 µM) of the same molecule?
**A.** 10.4%

**Q.** What about the viability, T/C (second compound 0.0949 µM, first compound 0.1 µM) of the same molecule?
**A.** 6.63%

**Q.** And the viability, T/C (second compound 0.3 µM, first compound 0.000316 µM)?
**A.** 22.7%

**Q.** And the viability, T/C (second compound 0.3 µM, first compound 0.001 µM)?
**A.** 21.3%

**Q.** What about the viability, T/C (second compound 0.3 µM, first compound 0.00316 µM) of the same molecule?
**A.** 18.9%

**Q.** What about the viability, T/C (second compound 0.3 µM, first compound 0.01 µM) of the same molecule?
**A.** 15.1%

**Q.** What about the viability, T/C (second compound 0.3 µM, first compound 0.0316 µM) of the same molecule?
**A.** 11.1%

**Q.** What about the viability, T/C (second compound 0.3 µM, first compound 0.1 µM) of the same molecule?
**A.** 6.78%

**Q.** What does the source list for `Cc1nc(N2CCC3(CC2)COC(C)C3N)c(CO)nc1Sc1ccnc(N)c1Cl` (centres undefined) + C=CC(=O)N1CCN(c2nc(OCC3CCCN3C)nc3c(F)c(-c4nc(N)cc(C)c4C(F)(F)F)c(Cl)cc23)C(C)C1?
**A.** pIC50 (second compound 0.00316 µM): < 5.00; pIC50 (second compound 0.01 µM): < 5.00; pIC50 (second compound 0.0316 µM): < 5.00; pIC50 (second compound 0.1 µM): < 5.00; pIC50 (second compound 0.316 µM): < 5.00; pIC50 (second compound 1 µM): < 5.00; viability, T/C (second compound 0.00316 µM, first compound 0.0316 µM): 115%; viability, T/C (second compound 0.00316 µM, first compound 0.1 µM): 142%; viability, T/C (second compound 0.00316 µM, first compound 0.316 µM): 71%; viability, T/C (second compound 0.00316 µM, first compound 1 µM): 86.8%; viability, T/C (second compound 0.00316 µM, first compound 3.16 µM): 117%; viability, T/C (second compound 0.00316 µM, first compound 10 µM): 143%; viability, T/C (second compound 0.01 µM, first compound 0.0316 µM): 154%; viability, T/C (second compound 0.01 µM, first compound 0.1 µM): 134%; viability, T/C (second compound 0.01 µM, first compound 0.316 µM): 77.8%; viability, T/C (second compound 0.01 µM, first compound 1 µM): 87.9%; viability, T/C (second compound 0.01 µM, first compound 3.16 µM): 121%; viability, T/C (second compound 0.01 µM, first compound 10 µM): 148%; viability, T/C (second compound 0.0316 µM, first compound 0.0316 µM): 149%; viability, T/C (second compound 0.0316 µM, first compound 0.1 µM): 173%; viability, T/C (second compound 0.0316 µM, first compound 0.316 µM): 77.3%; viability, T/C (second compound 0.0316 µM, first compound 1 µM): 90.5%; viability, T/C (second compound 0.0316 µM, first compound 3.16 µM): 126%; viability, T/C (second compound 0.0316 µM, first compound 10 µM): 139%; viability, T/C (second compound 0.1 µM, first compound 0.0316 µM): 162%; viability, T/C (second compound 0.1 µM, first compound 0.1 µM): 147%; viability, T/C (second compound 0.1 µM, first compound 0.316 µM): 80.6%; viability, T/C (second compound 0.1 µM, first compound 1 µM): 74.2%; viability, T/C (second compound 0.1 µM, first compound 3.16 µM): 138%; viability, T/C (second compound 0.1 µM, first compound 10 µM): 126%; viability, T/C (second compound 0.316 µM, first compound 0.0316 µM): 180%; viability, T/C (second compound 0.316 µM, first compound 0.1 µM): 136%; viability, T/C (second compound 0.316 µM, first compound 0.316 µM): 78.5%; viability, T/C (second compound 0.316 µM, first compound 1 µM): 76.7%; viability, T/C (second compound 0.316 µM, first compound 3.16 µM): 106%; viability, T/C (second compound 0.316 µM, first compound 10 µM): 140%; viability, T/C (second compound 1 µM, first compound 0.0316 µM): 167%; viability, T/C (second compound 1 µM, first compound 0.1 µM): 135%; viability, T/C (second compound 1 µM, first compound 0.316 µM): 78.3%; viability, T/C (second compound 1 µM, first compound 1 µM): 83.4%; viability, T/C (second compound 1 µM, first compound 3.16 µM): 111%; viability, T/C (second compound 1 µM, first compound 10 µM): 133%
